Data as given in US6346517B1, “Synergy between low molecular weight heparin and platelet aggregation inhibitors, providing a combination therapy for the prevention and treatment of various thromboembolic disorders” (Bristol-Myers Squibb Pharma Company, priority 1999, dated 2002).
Entries after “also recorded” stand apart in the source; their conditions may differ.

How the values were obtained:
preformed clot = assay: Thrombolysis of a preformed carotid clot in rats (reperfusion, patency, reocclusion); type: in vivo; conditions: for effectiveness in preventing thrombosis in this rat model: 0.3 mg/kg i.v., free acids
Experimental: (§1) Rabbits were anesthetized with ketamine (50 mg/kg i.m.) and xylazine (10 mg/kg i.m.) and then surgically prepared with arterial and venous catheters. An electromagnetic flow probe was placed on a segment of an isolated carotid artery to monitor blood flow. Thrombus formation was induced by electrical stimulation of the carotid artery for 3 min at 4 mA using an external stainless-steel bipolar electrode. Carotid blood flow was measured continuously over a 90-min period to monitor thrombus occlusion. Test agents were infused intravenously 1 hour prior to the electrical stimulation of the carotid artery and continuously during the 90-min period.
Experiments were conducted in rats anesthetized with ketamine (110 mg/kg i.m.) and xylazine (10 mg/kg i.m.). The protocol is similar to the rabbit protocol as described above in Example 1 except that the free acid of a compound of the formula (B): [drawing 11]
or the free acid of sibrafiban and/or TPA were given 5 min after a preformed clot was formed. The measured parameters were time to reperfusion, duration of patency and incidence of reocclusion. The doses of TPA, sibrafiban and compound B used were 1, 0.3 and 0.3 mg/kg i.v., respectively.

[1] = test system: clot formation in human whole blood; assay: Computerized thromboelastography (TEG): mediator-induced clot formation under shear in whole blood; type: cell-based; conditions: for enhancement of clot strength by platelets: TF-accelerated clot formation
Experimental: Clot formation was monitored at 37° C. in an oscillating plastic cylindrical cuvette (“cup”) and a coaxially suspended stationary piston (“pin”) with a 1 mm clearance between the surfaces, using a computerized Thrombelastograph (CTEG Model 3000, Haemoscope, Skokie, IL). The cup oscillates 4°45′ ( 1/12 radian) in either direction every 4.5 seconds, with a 1 second mid-cycle stationary period; resulting in a frequency of 0.1 Hz and a maximal shear rate of 0.1 per second. The pin is suspended by a torsion wire that acts as a torque transducer. […] The torque experienced by the pin (relative to the cup's oscillation) is plotted as a function of time. The amplitude on the TEG tracing is a measure of the rigidity of the clot; the peak strength or the shear elastic modulus attained by the clot, G, is a function of clot rigidity and can be calculated from the maximal amplitude (MA) of the TEG tracing.
The following parameters were measured from the TEG tracing (FIG. 5):
R, the reaction time (gelation time) represents the latent period before the establishment of a 3-dimensional fibrin gel network (with measurable rigidity of amplitude=2 mm).
Maximum Amplitude (MA, in mm) is the peak rigidity manifested by the clot.
Shear elastic modulus or clot strength (G, dynes/cm^2) is defined by: G=(5000* MA)/(96-MA) for computerized TEG. […]
To assess the effect of the TF modification on peak clot strength (G) was measured with and without the addition of TF in paired samples of WB and PRP. To document the contribution of activated platelets to the elastic modulus of fibrin clots, the effect of platelet number was measured by serially diluting PRP with PPP. The platelet count of each dilution was measured before performing TEG. […] The Thrombelastograph maximum amplitude (MA) for platelets MA (PLT)) was calculated by subtracting the MA from a platelet-poor plasma (PPP) sample MA (PPP) determined in one thromboelastography well from that of whole blood MA (WB) run simultaneously in the second thromboelastography well.

[2] = test system: carotid artery thrombus formation; assay: Electrically induced carotid artery thrombosis, carotid blood flow (rabbit model of arterial thrombosis); type: in vivo; conditions: i.v. infusion from 1 hour before and during 90 min after electrical stimulation, aspirin 1 mg/kg/hr, Compound (A) 0.03 mg/kg/hr, Fragmin 60 U/kg/hr
Experimental: as §1

[3] = rat, TPA 1, sibrafiban 0.3, compound B 0.3 mg/kg i.v., given 5 min after preformed clot, free acids used

In the case of CCOC(=O)COC1CCN(C(=O)[C@H](C)NC(=O)c2ccc(C(=N)NO)cc2)CC1 [sibrafiban, reference compound], the “effectiveness in preventing thrombosis in this rat model” value (preformed clot) is reported as “equal effective”.

With tissue plasminogen activator [TPA] the Incidence of reocclusion (preformed clot; rat, TPA 1, sibrafiban 0.3, compound B 0.3 mg/kg i.v., given 5 min after preformed clot, animals reoccluded/total) was 15/17, the Duration of patency (preformed clot; [3]) was 29 ± 2% and the Time to reperfusion (preformed clot; [3]) was 32 ± 6 min.

In the case of CC(=O)O.CCCCOC(=O)N[C@@H](CNC(=O)C[C@H]1CC(c2ccc(C(=N)N)cc2)=NO1)C(=O)OC (stereo in doubt) [Compound B, roxifiban], the “effectiveness in preventing thrombosis in this rat model” value (preformed clot) is reported as “equal effective”.

For CC(=O)O.CCCCOC(=O)N[C@@H](CNC(=O)C[C@H]1CC(c2ccc(C(=N)N)cc2)=NO1)C(=O)OC [Compound B, roxifiban], the “enhancement of clot strength by platelets” value [1] was “inhibited”.

In the case of CC(=O)Oc1ccccc1C(=O)O [Aspirin, aspirin, reference compound], the “effect on occlusion of the artery / carotid blood flow” value [2] is reported as “did not prevent the occlusion of the artery”.

For TFPI: Tissue factor pathway inhibitor, the “IC50, clot formation (clot retraction) induced by LPS” value ([1]; LPS 6.25 μg, human whole blood, mean ± SEM) was 0.09 ± 0.01 µg/mL.

For CS(=O)(=O)O.Cc1noc(C)c1S(=O)(=O)N[C@@H](CNC(=O)C[C@H]1CC(c2ccc(C(=N)N)cc2)=NO1)C(=O)O [Compound (A)], the “effect on occlusion of the artery / carotid blood flow” value [2] was “did not prevent the occlusion of the artery; also recorded: not effective”.

B1: Abciximab: c7E3 Fab (Abciximab, Centocor), platelet GPIIb/IIIa antagonist (antibody, chains of the INN, looked up, V domains shown)
VH: EVQLQQSGTVLARPGASVKMSCEASGYTFTNYWMHWVKQRPGQGLEWIGAIYPGNSDTSYIQKFKGKAKLTAVTSTTSVYMELSSLTNEDSAVYYCTLYDGYYVFAYWGQGTLVTVSA
VL: EIVLTQSPVTLSVTPGDSVSLSCRASRDISNNLHWFQQTSHESPRLLIKYASQSMSGIPSRFSGSGSGTDFTLSINSVETEDFGMYFCQQTNSWPYTFGGGTKLEIK
modifications: Fab
notes: c7E3 Fab (Abciximab, Centocor), platelet GPIIb/IIIa antagonist
In the case of B1, the “enhancement of clot strength by platelets” value [1] is reported as “inhibited”.
